Assay results reported in US8129371B2, “Thienopyrimidine and pyrazolopyrimidine compounds and their use as mTOR kinase and PI3 kinase inhibitors” (Wyeth LLC, priority 2007, dated 2012).
Where two headings read alike, the source gives them in different places.

What was measured:
Human mTOR (FLAG-TOR) = target: T1, Human mTOR (FLAG-TOR) (Homo sapiens, UniProt P42345); test: Human mTOR kinase assay with purified enzyme, DELFIA format; format: biochemical
T1 construct: FLAG
How it was run: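 DELFIA readout: Eu-anti-P(T389)-S6K antibody (40 ng/mL, 1 h) on captured His6-S6K from the stopped reaction. Kinase step used purified FLAG-tagged human mTOR with test compound in HEPES (pH 7.4)/MnCl2/DTT buffer, 2 h at room temperature (linear 1–6 h), terminated by EDTA/EGTA.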

PI3K [1] = target: T2, PI3K (Homo sapiens, UniProt P42336); test: Fluorescence polarization assay for PI3K; format: biochemical; conditions: read-out: PI3 Kinase α IC50
T2 construct: PI3 Kinase α IC50; other: PI3 Kinase α; other: PI3 Kinase α isoform, fluorescence polarization
T2 sequence (P42336 whole entry, canonical isoform): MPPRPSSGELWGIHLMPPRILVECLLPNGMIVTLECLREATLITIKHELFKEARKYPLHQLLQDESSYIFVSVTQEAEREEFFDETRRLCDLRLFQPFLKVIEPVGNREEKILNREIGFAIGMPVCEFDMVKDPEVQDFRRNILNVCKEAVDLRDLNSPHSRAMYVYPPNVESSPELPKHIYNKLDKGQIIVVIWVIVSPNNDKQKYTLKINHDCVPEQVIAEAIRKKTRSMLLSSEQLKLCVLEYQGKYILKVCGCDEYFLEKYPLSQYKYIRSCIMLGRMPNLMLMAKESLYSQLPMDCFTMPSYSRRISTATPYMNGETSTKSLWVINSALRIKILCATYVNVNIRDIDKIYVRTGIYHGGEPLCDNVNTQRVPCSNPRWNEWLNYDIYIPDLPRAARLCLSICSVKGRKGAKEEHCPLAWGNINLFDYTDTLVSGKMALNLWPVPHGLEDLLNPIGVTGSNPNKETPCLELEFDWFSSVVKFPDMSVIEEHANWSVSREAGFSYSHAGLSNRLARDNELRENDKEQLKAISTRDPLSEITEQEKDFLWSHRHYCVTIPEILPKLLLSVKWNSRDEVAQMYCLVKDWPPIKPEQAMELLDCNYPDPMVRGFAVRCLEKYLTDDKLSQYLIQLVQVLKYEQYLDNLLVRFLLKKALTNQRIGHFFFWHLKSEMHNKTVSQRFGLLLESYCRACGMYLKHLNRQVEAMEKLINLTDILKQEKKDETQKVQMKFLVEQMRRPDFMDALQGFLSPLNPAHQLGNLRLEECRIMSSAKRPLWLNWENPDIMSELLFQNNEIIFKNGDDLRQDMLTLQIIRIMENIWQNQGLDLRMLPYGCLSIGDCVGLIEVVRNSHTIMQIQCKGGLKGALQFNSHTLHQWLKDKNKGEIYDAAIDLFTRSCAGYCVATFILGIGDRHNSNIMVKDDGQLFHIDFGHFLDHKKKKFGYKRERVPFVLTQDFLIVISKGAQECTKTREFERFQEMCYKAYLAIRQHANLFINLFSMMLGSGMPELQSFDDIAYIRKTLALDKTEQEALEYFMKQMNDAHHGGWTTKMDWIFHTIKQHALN
How it was run: (§1)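 Fluorescence-polarization competition readout: after 30–60 min of PIP2/ATP turnover in 1% DMSO, a stop mix with GST-GRP (70 nM) and red probe (10 nM) was added.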

PI3K [2] = target: T3, PI3K (Homo sapiens, UniProt P48736); test: Fluorescence polarization assay for PI3K; format: biochemical; conditions: read-out: PI3 Kinase γ IC50
T3 construct: PI3 Kinase γ IC50; other: PI3 Kinase γ; other: PI3 Kinase γ isoform, fluorescence polarization
T3 sequence (P48736 whole entry, canonical isoform): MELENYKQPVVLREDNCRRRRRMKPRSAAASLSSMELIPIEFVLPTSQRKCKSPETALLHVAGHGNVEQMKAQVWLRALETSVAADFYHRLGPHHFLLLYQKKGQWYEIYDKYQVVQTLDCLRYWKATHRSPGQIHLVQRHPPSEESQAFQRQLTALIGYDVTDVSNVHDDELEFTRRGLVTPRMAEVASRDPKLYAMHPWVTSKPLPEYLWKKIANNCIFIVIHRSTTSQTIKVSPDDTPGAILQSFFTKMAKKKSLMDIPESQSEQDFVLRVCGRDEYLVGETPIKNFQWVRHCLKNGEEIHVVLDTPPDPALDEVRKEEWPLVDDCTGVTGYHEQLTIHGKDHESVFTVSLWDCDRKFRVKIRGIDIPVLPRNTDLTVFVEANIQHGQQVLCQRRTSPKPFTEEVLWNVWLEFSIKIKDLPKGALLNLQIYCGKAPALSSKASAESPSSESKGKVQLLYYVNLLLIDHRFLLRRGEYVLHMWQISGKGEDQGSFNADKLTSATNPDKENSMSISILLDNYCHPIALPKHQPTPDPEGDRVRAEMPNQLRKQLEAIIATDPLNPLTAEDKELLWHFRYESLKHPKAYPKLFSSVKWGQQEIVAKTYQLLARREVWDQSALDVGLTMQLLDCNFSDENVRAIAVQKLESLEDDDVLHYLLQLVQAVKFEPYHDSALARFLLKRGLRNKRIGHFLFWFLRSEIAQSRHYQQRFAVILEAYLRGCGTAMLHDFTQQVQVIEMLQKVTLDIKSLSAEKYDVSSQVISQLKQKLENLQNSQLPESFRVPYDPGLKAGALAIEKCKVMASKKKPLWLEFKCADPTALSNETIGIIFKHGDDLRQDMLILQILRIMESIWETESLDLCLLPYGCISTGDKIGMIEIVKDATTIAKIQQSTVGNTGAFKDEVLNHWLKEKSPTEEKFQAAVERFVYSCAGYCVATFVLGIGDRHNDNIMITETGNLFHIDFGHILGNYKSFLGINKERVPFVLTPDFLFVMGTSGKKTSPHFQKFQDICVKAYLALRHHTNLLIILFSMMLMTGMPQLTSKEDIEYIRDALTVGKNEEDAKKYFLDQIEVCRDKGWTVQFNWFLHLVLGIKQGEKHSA
How it was run: as §1

prostate line LNCap = test: In vitro cell culture growth assay (MTS), LNCap; format: cell-based; conditions: Homo sapiens, LNCaP, 72 h, LNCap cells, three days after drug treatment
How it was run: (§2)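 Plate cells; add inhibitors on day 1; after 3 days' treatment, add MTS; read A490; express as percent growth of vehicle-treated control.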

breast line MDA468 = test: In vitro cell culture growth assay (MTS), MDA468; format: cell-based; conditions: Homo sapiens, 72 h, MDA468 cells, three days after drug treatment
How it was run: as §2

[3] = purified human mTOR enzyme, DELFIA format
[4] = PI3 Kinase α isoform, fluorescence polarization
[5] = PI3 Kinase γ isoform, fluorescence polarization

IC50 (Human mTOR (FLAG-TOR); [3]) [nM]	IC50 (PI3K [1]; [4]) [nM]	IC50 (PI3K [2]; [5]) [nM]	IC50 (prostate line LNCap) [nM]	IC50 (Human mTOR (FLAG-TOR)) [nM]	IC50 (PI3K [1]; PI3 Kinase α) [nM]	IC50 (PI3K [2]; PI3 Kinase γ) [nM]	Compound	IC50 (breast line MDA468) [nM]
1.29	113	1630	36				CCNC(=O)Nc1ccc(-c2nc(N3CC4CCC(C3)O4)c3sc(CN4CCN(S(C)(=O)=O)CC4)cc3n2)cc1 [Example 430, 1-ethyl-3-{4-[6-{[4-(methylsulfonyl)piperazin-1-yl]methyl}-4-(8-oxa-3-azabicyclo[3.2.1]oct-3-yl)thieno[3,2-d]pyrimidin-2-yl]phenyl}urea]	90
			< 27	0.22	2750	6570	O=C(NCCF)Nc1ccc(-c2nc(N3CC4CCC(C3)O4)c3cnn(CC(F)(F)F)c3n2)cc1 [Example 6, 1-(2-fluoroethyl)-3-{4-[4-(8-oxa-3-azabicyclo[3.2.1]oct-3-yl)-1-(2,2,2-trifluoroethyl)-1H-pyrazolo[3,4-d]pyrimidin-6-yl]phenyl}urea]	< 27
0.285	909	> 10000	2				CNC(=O)Nc1ccc(-c2nc(N3CC4CCC(C3)O4)c3cnn(C4CCC5(CCCO5)CC4)c3n2)cc1 (single isomer, unassigned) [Example 389, 1-methyl-3-(4-{4-(8-oxa-3-azabicyclo[3.2.1]oct-3-yl)-1-[(5r,8r)-1-oxaspiro[4.5]dec-8-yl]-1H-pyrazolo[3,4-d]pyrimidin-6-yl}phenyl)urea]	17
			38	2.9	1690	8840	O=C(Nc1ccc(-c2nc(N3CC4CCC(C3)O4)c3cnn(C4CCN(Cc5ccccc5)CC4)c3n2)cc1)OCCO [Example 264, 2-hydroxyethyl {4-[1-(1-benzylpiperidin-4-yl)-4-(8-oxa-3-azabicyclo[3.2.1]oct-3-yl)-1H-pyrazolo[3,4-d]pyrimidin-6-yl]phenyl}carbamate]	700
			31	0.31	973	> 10000	CCn1ncc2c(N3CC4CCC(C3)O4)nc(-c3ccc(NC(=O)NCCF)cc3)nc21 [Example 42, 1-{4-[1-ethyl-4-(8-oxa-3-azabicyclo[3.2.1]oct-3-yl)-1H-pyrazolo[3,4-d]pyrimidin-6-yl]phenyl}-3-(2-fluoroethyl)urea]	120
			6	0.595	105	730	O=C(Nc1ccc(-c2nc(N3CC4CCC(C3)O4)c3cnn(CC(F)(F)F)c3n2)cc1)Nc1cccc(CO)c1 [Example 255, 1-[3-(hydroxymethyl)phenyl]-3-{4-[4-(8-oxa-3-azabicyclo[3.2.1]oct-3-yl)-1-(2,2,2-trifluoroethyl)-1H-pyrazolo[3,4-d]pyrimidin-6-yl]phenyl}urea]	30
			40	0.865	604	> 10000	CN(C)c1ccc(NC(=O)Nc2ccc(-c3nc(N4CC5CCC(C4)O5)c4cnn(C)c4n3)cc2)cc1 [Example 233, 1-[4-(dimethylamino)phenyl]-3-{4-[1-methyl-4-(8-oxa-3-azabicyclo[3.2.1]oct-3-yl)-1H-pyrazolo[3,4-d]pyrimidin-6-yl]phenyl}urea]	140
			< 0.8	0.12	314	2610	CCOC(=O)N1CCC(n2ncc3c(N4CC5CCC(C4)O5)nc(-c4ccc(NC(=O)Nc5cccnc5)cc4)nc32)CC1 [Example 34, ethyl 4-[4-(8-oxa-3-azabicyclo[3.2.1]oct-3-yl)-6-{4-[(pyridin-3-ylcarbamoyl)amino]phenyl}-1H-pyrazolo[3,4-d]pyrimidin-1-yl]piperidine-1-carboxylate]	25
			< 1	0.082	44	1380	N#CCCn1ncc2c(N3CC4CCC(C3)O4)nc(-c3ccc(NC(=O)Nc4ccc(CCO)cc4)cc3)nc21 [Example 219, 1-{4-[1-(2-cyanoethyl)-4-(8-oxa-3-azabicyclo[3.2.1]oct-3-yl)-1H-pyrazolo[3,4-d]pyrimidin-6-yl]phenyl}-3-[4-(2-hydroxyethyl)phenyl]urea]	< 1
			32	0.22	1300	> 10000	CNC(=O)Nc1ccc(-c2nc(N3CC4CCC(C3)O4)c3cnn(C4CCC(=O)CC4)c3n2)cc1 [Example 106, 1-(4-(4-(8-oxa-3-azabicyclo[3.2.1]octan-3-yl)-1-(4-oxocyclohexyl)-1H-pyrazolo[3,4-d]pyrimidin-6-yl)phenyl)-3-methylurea]	110
			1300	16	1170	7820	Oc1cccc(-c2nc(N3CC4CCC(C3)O4)c3cnn(-c4ccccc4)c3n2)c1 [Example 102, 3-[4-(8-oxa-3-azabicyclo[3.2.1]oct-3-yl)-1-phenyl-1H-pyrazolo[3,4-d]pyrimidin-6-yl]phenol]	5000

The remaining lines, values behind:

Compound	IC50 (Human mTOR (FLAG-TOR); [3]) [nM]	IC50 (PI3K [1]; [4]) [nM]	IC50 (PI3K [2]; [5]) [nM]	IC50 (prostate line LNCap) [nM]	IC50 (Human mTOR (FLAG-TOR)) [nM]	IC50 (PI3K [1]; PI3 Kinase α) [nM]	IC50 (PI3K [2]; PI3 Kinase γ) [nM]	IC50 (breast line MDA468) [nM]
COC(=O)N1CCC(n2ncc3c(N4C5CCC4COC5)nc(-c4ccc(NC(=O)NCCF)cc4)nc32)CC1 [Example 358, methyl 4-[6-(4-{[(2-fluoroethyl)carbamoyl]amino}phenyl)-4-(3-oxa-8-azabicyclol[3.2.1]oct-8-yl)-1H-pyrazolo[3,4-d]pyrimidin-1-yl]piperidine-1-carboxylate]	0.495	7700	7930	6				35
COC(=O)N1CCC(n2ncc3c(N4C5CCC4COC5)nc(-c4ccc(NC(=O)Nc5ccncc5)cc4)nc32)CC1 [Example 362, methyl 4-[4-(3-oxa-8-azabicyclo[3.2.1]oct-8-yl)-6-{4-[(pyridin-4-ylcarbamoyl)amino]phenyl}-1H-pyrazolo[3,4-d]pyrimidin-1-yl]piperidine-1-carboxylate]	0.26	1930	2000	3				10
CNC(=O)Nc1ccc(-c2nc(N3CC4CCC(C3)O4)c3cnn(C4CCN(C(=O)OC(C)(C)C)CC4)c3n2)cc1 [Example 8, tert-butyl 4-[6-{4-[(methylcarbamoyl)amino]phenyl}-4-(8-oxa-3-azabicyclo[3.2.1]oct-3-yl)-1H-pyrazolo[3,4-d]pyrimidin-1-yl]piperidine-1-carboxylate]				< 27	0.28	1480	> 10000	180
CN1CCN(Cc2cc3nc(-c4ccc(NC(=O)NC5CC5)cc4)nc(N4CC5CCC(C4)O5)c3s2)CC1 [Example 424, 1-cyclopropyl-3-(4-{6-[(4-methylpiperazin-1-yl)methyl]-4-(8-oxa-3-azabicyclo[3.2.1]oct-3-yl)thieno[3,2-d]pyrimidin-2-yl}phenyl)urea]	15.5	874	3670	400				2000
COC(=O)N1CCC(n2ncc3c(N4C5CCC4COC5)nc(-c4ccc(NC(=O)Nc5cccnc5)cc4)nc32)CC1 [Example 361, methyl 4-[4-(3-oxa-8-azabicyclo[3.2.1]oct-8-yl)-6-{4-[(pyridin-3-ylcarbamoyl)amino]phenyl}-1H-pyrazolo[3,4-d]pyrimidin-1-yl]piperidine-1-carboxylate]	0.165	1830	4070	2				20
COC(=O)Nc1ccc(-c2nc(N3CC4CCC(C3)O4)c3cnn(C4CCC(=O)CC4)c3n2)cc1 [Example 136, methyl {4-[4-(8-oxa-3-azabicyclo[3.2.1]oct-3-yl)-1-(4-oxocyclohexyl)-1H-pyrazolo[3,4-d]pyrimidin-6-yl]phenyl}carbamate]				40	6.25	3900	> 10000	1100
CCOC(=O)N1CCC(n2ncc3c(N4CC5CCC(C4)O5)nc(-c4ccc(NC(=O)NC5CCN(C)CC5)cc4)nc32)CC1 [Example 36, ethyl 4-[6-(4-{[(1-methylpiperidin-4-yl)carbamoyl]amino}phenyl)-4-(8-oxa-3-azabicyclo[3.2.1]oct-3-yl)-1H-pyrazolo[3,4-d]pyrimidin-1-yl]piperidine-1-carboxylate]				1200	26	6210	7620	4500
O=C(Nc1ccncc1)Nc1ccc(-c2nc(N3CC4CCC(C3)O4)c3cnn(Cc4ccccc4)c3n2)cc1 [Example 79, 1-{4-[1-benzyl-4-(8-oxa-3-azabicyclo[3.2.1]oct-3-yl)-1H-pyrazolo[3,4-d]pyrimidin-6-yl]phenyl}-3-pyridin-4-ylurea]				20	1.9	1980	> 10000	150
O=C(Nc1ccc(-c2nc(N3C[C@@H]4C[C@H]3CO4)c3cnn(CC(F)(F)F)c3n2)cc1)Nc1ccc(N2CCOCC2)nc1 [Example 299, 1-(6-morpholin-4-ylpyridin-3-yl)-3-(4-{4-[(1S,4S)-2-oxa-5-azabicyclo[2.2.1]hept-5-yl]-1-(2,2,2-trifluoroethyl)-1H-pyrazolo[3,4-d]pyrimidin-6-yl}phenyl)urea]	2.85	10200	> 10000	10				42
